Experimental data reported in patent publication US20080063613A1, “Syndet Bars Having Ultraviolet Radiation Protection” (priority 2004, published 2008).

Assay: physchem
Source text: Log P is a measure of differential solubility of a compound in two solvents. The log ratio of the concentrations of the solute in the solvent is called Log P or the Partition Coefficient. The most well-known of these partition coefficients is based on the solvents Octanol and Water.

logP: ~6.9
SMILES: CCCCC(CC)COC(=O)C(C#N)=C(c1ccccc1)c1ccccc1 (stereo not shown) [Octocrylene]
